Reference: patent US20240066018A1 (priority 2022, published 2024)

Key:
[1] = tested on: primary colon cancer samples from patients with high M3 receptor expression grown as organoids
[2] = patients with irritable bowel syndrome; cited from earlier work

c1ccc(C(O[C@@H]2CCCN(CCc3ccc4c(c3)OCO4)C2)c2ccccc2)cc1 [zamifenacin]
Organoid growth [1]: inhibited | Colonic motor activity [2]: reduce colonic motor activity
